Reference: patent US5856166A, “Streptomyces proteases and methods for improved secretion of recombinantly-expressed proteins” (Cangene Corporation, priority 1994, dated 1999)
Where a SMILES comes first, the peptide text is derived from it. [ ]: non-standard residue; d: D form. The star is where a group is joined. Sta = CC(C)C[C@H](N)[C@@H](O)CC(=O)O; pNA = O=[N+]([O-])c1ccc(N*)cc1; AMC = Cc1cc(=O)oc2cc(N*)ccc12; Isovaleryl = CC(C)CC(=O)*; βNA = c1ccc2cc(N*)ccc2c1; Boc = CC(C)(C)OC(=O)*

Biological target: T1, Tap (tripeptidyl aminopeptidase) (Streptomyces lividans, UniProt Q54410)
T1 construct: An autolytic tripeptide cleavage removing APA after signal peptide removal would yield the N-terminal found for the secreted protease; made in house; host or cells: Streptomyces lividans 66 (wild-type strain, native secreted enzyme purified from the broth)
T1 sequence (Q54410 40-537): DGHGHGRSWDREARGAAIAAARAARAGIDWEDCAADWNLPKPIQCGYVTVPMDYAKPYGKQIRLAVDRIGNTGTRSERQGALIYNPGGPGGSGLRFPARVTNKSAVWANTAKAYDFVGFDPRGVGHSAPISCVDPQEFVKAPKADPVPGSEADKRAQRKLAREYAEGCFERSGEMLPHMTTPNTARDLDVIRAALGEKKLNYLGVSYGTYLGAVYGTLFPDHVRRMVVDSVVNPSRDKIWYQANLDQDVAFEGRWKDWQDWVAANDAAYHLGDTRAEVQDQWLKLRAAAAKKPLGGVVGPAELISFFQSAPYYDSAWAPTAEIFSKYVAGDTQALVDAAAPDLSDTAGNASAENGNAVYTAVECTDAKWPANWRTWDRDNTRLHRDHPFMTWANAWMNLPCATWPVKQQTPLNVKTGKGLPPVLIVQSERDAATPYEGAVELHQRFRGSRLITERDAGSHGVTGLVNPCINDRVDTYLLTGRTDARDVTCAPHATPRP
Assay: Inhibition of TAP in the APA-pNA assay (protease inhibitor survey, Table I)
Assay type: biochemical, S. lividans 66
Conditions: inhibitor 0.1 mM; preincubated 15 minutes at 22° C.; substrate APA-pNA; enzyme only = 100
Method: The protease and inhibitor were preincubated for 15 minutes at 22° C. Substrate was added and the mixture was incubated at 37° C. Activity was measured by monitoring the change in absorbance at λ=405 nm.
(§1) The assay was conducted in a 96 well microtiter plate. To each well in the assay, 50 ul 100 mM Tris-HCl, pH 8.0, were added followed by 25 ul 3.2 mM APA-pNA. 25 ul of Tap were added to the wells and the absorbance was read at 405 nm. The assays were incubated at 37° C. for 2 hours. The absorbance was read at 405 nm. The activity (release of p-nitroaniline) was calculated from the change in absorbance.

Compound	Residual Activity
[Cl][Hg][Cl] [HgCl1]	99
Chymostatin	98

Same assay, conditions: inhibitor 0.1 mM; preincubated 15 minutes at 22° C.; substrate APA-pNA; enzyme only = 100; read-out: Residual Activity

Compound	remaining activity at 100 µM [%]
CC(C)C[C@H](NC(=O)N[C@H](C(=O)N[C@@H](CCC(N)=O)C(=O)N[C@@H](C)C=O)[C@@H]1CCNC(=N)N1)C(=O)O [Elastatinal]	97
CC(C)CC(=O)N[C@H](C(=O)N[C@H](C(=O)N[C@@H](CC(C)C)[C@@H](O)CC(=O)N[C@@H](C)C(=O)N[C@@H](CC(C)C)[C@@H](O)CC(=O)O)C(C)C)C(C)C [Pepstatin] (Isovaleryl-VV[Sta]A[Sta]-OH)	95

Same assay, conditions: inhibitor 1.0 mM; preincubated 15 minutes at 22° C.; substrate APA-pNA; enzyme only = 100

Compound	Residual Activity
[Ca+2].[Cl-].[Cl-] [CaCl2]	96
[Cl-].[Cl-].[Co+2] [CoCl2]	98
[Cl][Hg][Cl] [HgCl1]	93

Same assay, conditions: inhibitor 1.0 mM; preincubated 15 minutes at 22° C.; substrate APA-pNA; enzyme only = 100; read-out: Residual Activity

remaining activity at 1000 µM [%]	Compound
86	OC(CS)C(O)CS (stereo not drawn) [DTT]

Same assay, conditions: inhibitor 10 mM; preincubated 15 minutes at 22° C.; substrate APA-pNA; enzyme only = 100

Compound	Residual Activity
[Ca+2].[Cl-].[Cl-] [CaCl2]	97
[Cl-].[Cl-].[Co+2] [CoCl2]	97

Same assay, conditions: inhibitor 10 mM; preincubated 15 minutes at 22° C.; substrate APA-pNA; enzyme only = 100; read-out: Residual Activity

Compound	remaining activity at 10000 µM [%]
N=C(N)c1ccccc1 [Benzamidine]	94

Same assay, conditions: read-out: Residual Activity

Compound	remaining activity at 1000 µM [%]	remaining activity at 10000 µM [%]
O=C(O)CN(CCN(CC(=O)O)CC(=O)O)CC(=O)O [EDTA, Ethylenediaminetetraacetic acid]	95	95

Biological target: T1, Tap (tripeptidyl aminopeptidase)
Assay: Release of reporter group from synthetic substrates by pure Tap
Assay type: biochemical, S. lividans 66
Conditions: not given
Method: The enzyme was also active when APM-pNA, APA-AMC, APS-bNA, GPL-bNA, and SPA-bNA were used as substrates. […] The enzyme only released the reporter group from substrates with a free amino terminal.
as §1

Compound	release of reporter group when used as substrate of Tap
C[C@H](N)C(=O)Nc1ccc([N+](=O)[O-])cc1 [A-pNA, L-alanine p-nitroanilide]	did not release the reporter group
C[C@H](N)C(=O)N[C@@H](C)C(=O)Nc1ccc([N+](=O)[O-])cc1 [AA-pNA, L-alanyl-L-alanine p-nitroanilide] (H-Ala-Ala-pNA)	did not release the reporter group
C[C@H](N)C(=O)N[C@@H](C)C(=O)N1CCC[C@H]1C(=O)N[C@@H](C)C(=O)Nc1ccc([N+](=O)[O-])cc1 [AAPA-pNA, L-alanyl-L-alanyl-L-prolyl-L-analine p-nitroanilide] (H-AAPA-pNA)	did not release the reporter group
Cc1cc(=O)oc2cc(NC(=O)[C@H](C)NC(=O)[C@@H]3CCCN3C(=O)[C@H](C)N)ccc12 [APA-AMC, L-alanyl-L-prolyl-L-alanine 7-amino-4-methylcoumarin] (H-Ala-Pro-Ala-{AMC})	active
C[C@H](N)C(=O)N1CCC[C@H]1C(=O)N[C@@H](C)C(=O)Nc1ccc([N+](=O)[O-])cc1 [APApNA, L-alanyl-L-prolyl-L-alanine p-nitroanilide] (H-Ala-Pro-Ala-pNA)	releases p-nitroaniline
CSCC[C@H](NC(=O)[C@@H]1CCCN1C(=O)[C@H](C)N)C(=O)Nc1ccc([N+](=O)[O-])cc1 [APM-pNA, L-alanyl-L-prolyl-L-methione p-nitroanilide] (H-Ala-Pro-Met-pNA)	active
C[C@H](N)C(=O)N1CCC[C@H]1C(=O)N[C@@H](CO)C(=O)Nc1ccc2ccccc2c1 [APS-bNA, L-alanyl-L-prolyl-L-serine beta-naphthylamide] (H-Ala-Pro-Ser-βNA)	active
C[C@H](NC(=O)OC(C)(C)C)C(=O)N[C@@H](C)C(=O)N1CCC[C@H]1C(=O)N[C@@H](C)C(=O)Nc1ccc([N+](=O)[O-])cc1 [Boc-AAPA-pNA, N-t-butoxycarbonyl L-alanyl-L-alanyl-L-prolyl-L-alanine p-nitroanilide] (Boc-AAPA-pNA)	did not release the reporter group
C[C@H](NC(=O)[C@@H]1CCCN1C(=O)[C@H](C)NC(=O)OC(C)(C)C)C(=O)N[C@@H](CCCNC(=N)N)C(=O)N[C@@H](CO)C(=O)N1CCC[C@H]1C(=O)N[C@@H](C)C(=O)Nc1ccc2ccccc2c1 [Boc-APARSPA-bNA, L-alanyl-L-prolyl-L-analyl-L-arginyl-L-seryl-L-prolyl-L-alanine beta-naphthylamide] (Boc-APARSPA-βNA)	did not release the reporter group
N=C(N)NCCC[C@H](NC(=O)[C@H](Cc1ccccc1)NC(=O)[C@H]1CCCN1)C(=O)Nc1ccc([N+](=O)[O-])cc1 [D-PFR-pNA, D-prolyl-L-phenylalanyl-L-arginine p-nitroanilide] (H-[dP]-Phe-Arg-pNA)	did not release the reporter group
NCC(=O)N1CCC[C@H]1C(=O)Nc1ccc([N+](=O)[O-])cc1 [GP-pNA, Glycyl-L-proline p-nitroanilide] (H-Gly-Pro-pNA)	did not release the reporter group
CC(C)C[C@H](NC(=O)[C@@H]1CCCN1C(=O)CN)C(=O)Nc1ccc2ccccc2c1 [GPL-bNA, Glycyl-L-prolyl-L-leucine beta-napthylamide] (H-Gly-Pro-Leu-βNA)	active
CC(C)C[C@H](N)C(=O)Nc1ccc([N+](=O)[O-])cc1 [L-pNA, L-leucine p-nitroanilide]	did not release the reporter group
CC(=O)N[C@@H](C)C(=O)N1CCC[C@H]1C(=O)N[C@@H](C)C(=O)Nc1ccc([N+](=O)[O-])cc1 [N-Ac-APA-pNA, N-acetyl-L-alanyl-L-prolyl-L-alanine p-nitroanilide] (Ac-Ala-Pro-Ala-pNA)	did not release the reporter group
N=C(N)NCCC[C@H](NC(=O)c1ccccc1)C(=O)Nc1ccc([N+](=O)[O-])cc1 [N-Bz-R-pNA]	did not release the reporter group
O=C(Nc1ccc([N+](=O)[O-])cc1)[C@@H]1CCCN1 [P-pNA, L-proline p-nitroanilide]	did not release the reporter group
N=C(N)NCCC[C@H](N)C(=O)Nc1ccc([N+](=O)[O-])cc1 [R-pNA, L-arginine p-nitroanilide]	did not release the reporter group
N[C@@H](CO)C(=O)Nc1ccc2ccccc2c1 [S-bNA, L-serine beta-naphthylamide]	did not release the reporter group
C[C@H](NC(=O)[C@@H]1CCCN1C(=O)[C@@H](N)CO)C(=O)Nc1ccc2ccccc2c1 [SPA-bNA, L-seryl-L-prolyl-L-alanine beta-naphthylamide] (H-Ser-Pro-Ala-βNA)	active
N-benzoyl-L-alanyl-glycyl-L-arginine p-nitroanilide [N-Bz-VGR-pNA]	did not release the reporter group
